Results taken from PMC7921374, “In vitro antifungal activity of pelgipeptins against human pathogenic fungi and Candida albicans biofilms” (AIMS Microbiology, 2021).
≈ marks a conversion by molar mass, not a printed value. Where a SMILES comes first, the peptide text is derived from it. Bridges are numbered along the chain shown (N, C = ends). [ ]: non-standard residue; d: D form. The star is where a group is joined. X1 = CC[C@H](C)CCCCC(=O)*; Dab = NCC[C@H](N)C(=O)O

Legend:
Format in all cases: cell-based
[1] = tested on: Candida albicans SC 5314 biofilms; assay: Inhibition of initial biofilm formation (XTT); settings: antimicrobial added at same time as yeast inoculum (2 × 10^6 cells/mL), XTT reduction, A490, 80% decrease vs control biofilm, triplicate, at least twice
Method: (§1) The effects of the pelgipeptins on C. albicans biofilms were analyzed according to the protocol described by Pierce et al.. Briefly, 2 × 10^6 cells/mL of C. albicans SC 5314 were inoculated on 96-well polystyrene microplates. The inhibition of biofilm formation was also evaluated by adding antimicrobials (lipopeptides, fluconazole, or amphotericin B) at the same time as the yeast inoculum. Furthermore, the inhibition of early-phase biofilms was assessed after 4 hours of yeast growth by removing the planktonic cells and adding the antimicrobials (lipopeptides or amphotericin B). For the investigation of the effects of peptides on mature biofilms, the Candida cells were allowed to grow for 24 h when planktonic cells were removed, and the antimicrobials were added to the culture and incubated for another 24 h at 37 °C.
(§2) The biofilm viability was analyzed by the metabolic assay on the basis of the reduction of 2,3-bis-(2-methoxy-4-nitro-5-sulfophenyl)-2H-tetrazolium-5-carboxanilide (XTT) and absorbance reading at 490 nm. […] The sessile minimal inhibitory concentrations (SMICs) were also determined at 80% (SMIC80) and 50% (SIMIC50) decrease in absorbance at 490 nm in comparison with the control biofilms growing in the absence of the drug, as previously described.

[2] = tested on: Candida albicans SC 5314 biofilms; assay: Inhibition of early-phase biofilm (XTT); settings: antimicrobial added after 4 hours of yeast growth, planktonic cells removed, A490, 80% decrease, triplicate, at least twice
Method: as §1, §2

[3] = tested on: Candida albicans SC 5314 biofilms; assay: Inhibition of mature biofilms (XTT); settings: biofilm grown 24 h, planktonic cells removed, antimicrobial for another 24 h at 37 °C, triplicate, at least twice
Method: as §1, §2

Candida albicans SC5314 = assay: microbe, parasite or virus in culture; settings: broth microdilution CLSI M27-A4 modified, RPMI 1640 pH 7.0, 2 × 10^3 cells/mL, 37 °C, complete inhibition of visible growth, triplicates, at least thrice
Method: (§3) The isolated pelgipeptin isoforms were tested against the reference clinical strains of Candida albicans SC 5314 (ATCC MYA-2876), Candida glabrata ATCC 90030, Cryptococcus neoformans H99 (ATCC 208821), and Paracoccidioides brasiliensis PB18, a Brazilian clinical isolate. All the isolates were obtained from the mycology collection of the University of Brasilia (Department of Cell Biology). Before each experiment, both Candida spp. strains were grown in Sabouraud's dextrose broth (Himedia) overnight at 30 °C/200 rpm. In addition, the C. neoformans cells were grown in the same conditions for 24 h. P. brasiliensis strains were also grown in GPY medium (2% glucose w/v, 1% peptone w/v, 0.5% yeast extract w/v, and 2% agar w/v), at 37 °C, for 5 days. The fungal cells were collected by centrifugation, washed thrice in phosphate buffered saline (PBS) (NaCl, 137 mM; KCl, 2.7 mM; Na2HPO4, 10 mM; KH2PO4, 2 mM), and inoculated in RPMI 1640 medium (Thermo-Fisher Scientific) supplemented with L-glutamine and buffered to pH 7.0 with 165 mM of 3-(N-morpholino) propanesulfonic acid.
(§4) The in vitro antifungal assays were performed according to the broth microdilution susceptibility test from the Clinical and Laboratory Standards Institute M27-A4 guidelines with modifications. Briefly, the twofold serial dilutions of each pelgipeptin were prepared in 96-well polystyrene microplates to a final volume of 50 µL. Fluconazole, an antifungal employed in the treatment of mycosis caused by Candida spp, Cryptococcus spp, and Paracoccidioides spp, was used as a control (Sigma-Aldrich). We also utilized polymyxin B (Sigma-Aldrich), another bacterial lipopeptide, in our assays due to some works that show its antifungal activity,[28]. The final concentrations of each lipopeptide and control ranged from 1 to 128 µg/mL, and the negative controls without peptide were used to assess fungal growth. Subsequently, 50 µL of the inoculum adjusted on RPMI-1640 medium was added to each well to a final concentration of 2 × 10^3 cells/mL for Candida spp. and 10^4 cells/mL for C. neoformans or P. brasiliensis strains. The microplates were incubated at 37 °C for 24, 48, or 72 h. In addition, the strains of C. neoformans were incubated with shaking at 200 rpm.
(§5) The MICs of the pelgipeptins against P. brasiliensis were determined using the microplate AlamarBlue Cell Viability Assay. This assay uses a resazurin-based solution to indicate cell viability, which was evaluated by fluorometric readings in a fluorescence plate reader with excitation at 550 nm and emission at 585 nm (SpectraMax® M plate reader). The experiments were performed in triplicates at least thrice on separate dates.

[4] = tested on: Candida glabrata ATCC 90030; assay: microbe, parasite or virus in culture; settings: broth microdilution CLSI M27-A4 modified, RPMI 1640 pH 7.0, 2 × 10^3 cells/mL, 37 °C, complete inhibition of visible growth, triplicates, at least thrice
Method: as §3, §4, §5

[5] = tested on: Cryptococcus neoformans H99; assay: microbe, parasite or virus in culture; settings: broth microdilution CLSI M27-A4 modified, RPMI 1640 pH 7.0, 10^4 cells/mL, 37 °C, shaking 200 rpm, lowest concentration completely inhibiting visible growth, triplicates, at least thrice
Method: as §3, §4, §5

[6] = tested on: Paracoccidioides brasiliensis Pb18; assay: microbe, parasite or virus in culture
Method: as §3, §4, §5

C[C@@H]1[C@H](O)[C@@H](C)/C=C/C=C/C=C/C=C/C=C/C=C/C=C/[C@H](O[C@@H]2O[C@H](C)[C@@H](O)[C@H](N)[C@@H]2O)C[C@@H]2O[C@](O)(C[C@@H](O)C[C@@H](O)[C@H](O)CC[C@@H](O)C[C@@H](O)CC(=O)O[C@H]1C)C[C@H](O)[C@H]2C(=O)O [Amphotericin B]
Inhibition of initial biofilm formation SMIC80 [1]: <0.5 µg/mL
Inhibition of initial biofilm formation SMIC80 ([1]; listed as amphotericin B): lower than 0.5 µg/mL
Inhibition of early-phase biofilm SMIC80 [2]: <0.5 µg/mL
Inhibition of early-phase biofilm SMIC80 ([2]; listed as amphotericin B): lower than 0.5 µg/mL
Inhibition of mature biofilms SMIC50 ([3]; A490, 50% decrease): 0.5 µg/mL
Inhibition of mature biofilms SMIC80 ([3]; A490, 80% decrease): 4 µg/mL

OC(Cn1cncn1)(Cn1cncn1)c1ccc(F)cc1F [Fluconazole]
MIC (Candida albicans SC5314; Candida albicans, SC5314): 16 µg/mL (≈ 52.2 µM)
MIC ([4]; Nakaseomyces glabratus, ATCC90030): 32 µg/mL (≈ 104 µM)
MIC ([5]; Cryptococcus neoformans, H99): 2 µg/mL (≈ 6.53 µM)
MIC ([6]; Paracoccidioides brasiliensis, PB18, pH 7, read-out: MIC Paracoccidioides brasiliensis Pb18): 2 µg/mL (≈ 6.53 µM)

CC[C@H](C)CCCCC(=O)N[C@@H](CCN)C(=O)N[C@H](C(=O)N[C@@H](CCN)C(=O)N[C@H]1CCNC(=O)[C@H]([C@@H](C)O)NC(=O)[C@H](CCN)NC(=O)[C@H](CCN)NC(=O)[C@H](CC(C)C)NC(=O)[C@@H](Cc2ccccc2)NC(=O)[C@H](CCN)NC1=O)[C@@H](C)O [Polymyxin B, polymyxin B] (X1-[Dab]T[Dab][Dab][Dab][dF]L[Dab][Dab]T; lactam 4-C (inferred); N-terminus assumed)
MIC Candida albicans SC5314 (Candida albicans SC5314): 256 µg/mL (≈ 213 µM)
MIC Candida glabrata 90030 [4]: 512 µg/mL (≈ 425 µM)
MIC Cryptococcus neoformans H99 [5]: 8 µg/mL (≈ 6.65 µM)
MIC Paracoccidioides brasiliensis Pb18 ([6]; broth microdilution, RPMI 1640 pH 7.0 (MOPS), 10^4 cells/mL, 37 °C, AlamarBlue fluorescence (ex 550/em 585 nm), triplicates, at least thrice): > 1024 µg/mL
